Legend:
Type in all cases: cell-based, Mycobacterium tuberculosis
[1] = test system: Wild-type H37Rv transformed with pH-GFP; conditions: pH 4.5
[2] = test system: Rv3671c mutant in IFN-γ-activated macrophages
[3] = test system: Rv3671c mutant in IFN-γ-activated macrophages; remark: listed apart in the source
Rv3671c mutant [4] = test system: Rv3671c mutant
Rv3671c mutant [5] = test system: Rv3671c mutant; remark: listed apart in the source
Rv3671c mutant [6] = test system: Rv3671c mutant; remark: listed apart in the source
Rv3671c mutant [7] = test system: Rv3671c mutant; remark: listed apart in the source
lysX mutant = test system: lysX mutant

CC[C@@H](CO)NCCN[C@@H](CC)CO [Ethambutol]
concentrations causing a substantial decline in pHIB [1]: ≥ 8 μg/ml

Cl.N [NH4Cl]
effect on pHIB of the Rv3671c mutant [2]: protected | effect on survival of the Rv3671c mutant [3]: restored

CCCCCCCCCCCCOS(=O)(=O)[O-].[Na+] [SDS]
sensitivity of the Rv3671c mutant to SDS (Rv3671c mutant [4]): hypersensitive

N#CC(C#N)=NNc1cccc(Cl)c1 [carbonyl cyanide m-chlorophenylhydrazone]
effect on the Rv3671c mutant's survival (Rv3671c mutant [5]): further attenuated | effect on the Rv3671c mutant's pHIB (Rv3671c mutant [6]): further reduced

CC[C@H]1OC(=O)[C@H](C)[C@@H](O[C@H]2C[C@@](C)(OC)[C@@H](O)[C@H](C)O2)[C@H](C)[C@@H](O[C@@H]2O[C@H](C)C[C@H](N(C)C)[C@H]2O)[C@](C)(O)C[C@@H](C)C(=O)[C@H](C)[C@@H](O)[C@]1(C)O [erythromycin]
sensitivity of the Rv3671c mutant to the antibiotic (Rv3671c mutant [7]): hypersensitive | sensitivity of the lysX mutant to the antibiotic (lysX mutant): hypersensitive

NNC(=O)c1ccncc1 [isoniazid]
effect on Mtb's pHIB [1]: did not significantly alter pHIB

CC[C@@]1([C@@H]2O[C@@H]([C@H]3O[C@@](O)(CO)[C@H](C)C[C@@H]3C)C[C@@H]2C)CC[C@H]([C@]2(C)CC[C@]3(C[C@H](O)[C@@H](C)[C@@H]([C@@H](C)[C@@H](OC)[C@H](C)C(=O)O)O3)O2)O1 [monensin]
effect on the Rv3671c mutant's survival (Rv3671c mutant [5]): further attenuated | effect on the Rv3671c mutant's pHIB (Rv3671c mutant [6]): further reduced | effect on Mtb's pHIB [1]: concentration dependent decline in pHIB

NC(=O)c1cnccn1 [pyrazinmide]
effect on Mtb's pHIB [1]: did not significantly alter pHIB

CO[C@H]1/C=C/O[C@@]2(C)Oc3c(C)c(O)c4c(O)c(c(/C=N/N5CCN(C)CC5)c(O)c4c3C2=O)NC(=O)/C(C)=C\C=C\[C@H](C)[C@H](O)[C@@H](C)[C@@H](O)[C@@H](C)[C@H](OC(C)=O)[C@@H]1C [rifampin]
sensitivity of the Rv3671c mutant to the antibiotic (Rv3671c mutant [7]): hypersensitive | sensitivity of the lysX mutant to the antibiotic (lysX mutant): hypersensitive | effect on Mtb's pHIB [1]: did not significantly alter pHIB

[H]/N=C(/N)N[C@H]1[C@H](O)[C@@H](O)[C@H](O[C@@H]2O[C@@H](C)[C@](O)(C=O)[C@H]2O[C@@H]2O[C@@H](CO)[C@H](O)[C@@H](O)[C@@H]2NC)[C@@H](N/C(N)=N\[H])[C@@H]1O [streptomycin]
effect on Mtb's pHIB [1]: did not significantly alter pHIB

From patent US8951992B2, “Mycobacterium membrane protease as a target for inhibitors of intrabacterial pH homeostasis” (Cornell University, priority 2008, dated 2015)
